The text below walks through data of paper PMC9579194, “Selective macrocyclic peptide modulators of Lys63-linked ubiquitin chains disrupt DNA damage repair” (Nature Communications, 2022).

Where “and” joins values, the source holds several entries; their conditions need not be identical. Identical values can stand only once. Like-named read-outs stand apart in the source and are kept apart here. *1 amine or outer side, *2 acyl side, *3 side chain or, on linkers, in order; H or OH if unused. Where a SMILES comes first, the peptide text is derived from it. Bridges are numbered along the chain shown (N, C = ends). The star is where a group is joined. Fluorescein(5-Mal) = O=C1OC2(c3ccc(O)cc3Oc3cc(O)ccc32)c2ccc(N3C(=O)CC(*)C3=O)cc21; X2 = CN(C)c1ccc2c(-c3ccc(N4C(=O)CC(*)C4=O)cc3C(=O)[O-])c3ccc(=[N+](C)C)cc-3oc2c1; X1 = O=C(c1cccc(C[*:2])c1)[*:1]; X3 = Fc1c(F)c(F)c(*)c(F)c1F

Data set [1] deals with U2OS cells.
Method: (§1) Cells were seeded for 24 h on Ibidi 8 well µ-slides treated with poly-L-lysine to reach ~90% confluency. Cells were then washed three times with warm PBS followed by incubation for 1 h with a warm serum-free medium (DMEM) containing peptides. Thereafter, cells were washed two times with warm PBS. Prior to imaging, cells were washed with an optical culture medium and stained with Hoechst (2 µg/ml). Live cell CLSM images were captured using Confocal Zeiss LSM 710 equipped with 40× NA 1.2 water immersion objective lens using a 1 AU pinhole settings. Different lasers were used for the different tags (Hoechst, TAMRA, FITC), and during analysis, the µ-slide was kept at 37 °C in a humidified chamber. Images were analyzed using ZEN 3.2 (blue edition).
For data set [2], the target named is T1, Lys63 linked Di-Ub (Homo sapiens, UniProt P0CG48).
T1 construct: made in house; host or cells: total chemical synthesis (Fmoc-SPPS, ligation, desulfurization)
Nature of the data set: KD determination of fluorophore-labeled cyclic peptides, fluorescence-based assay. The format is binding. The settings on record: for Kd: fluorophore-labeled peptide, Y = Bmax*X/(KD + X); for Reading-1 / Reading-2 / Reading-3: raw fluorescence, blank not subtracted, Experiments 1-3. The method, then: (ii) Determination of KD value of CP1-FITC
According to the described procedure in literature,3 the KD value of FITC-labeled cyclic peptide 1 (CP1- […]
Supplementary Fig. 25 The carve represents the binding of CP1-FITC to Lys63 linked Di-Ub. Using Y = […]
All measurements were performed in three independent experiments. Bars represent mean values. All source data are provided as a Source […]
(iii) Determination of KD value of CP1-TAMRA
The fluorescence values were measured (λex = 510 nm and λem = 565 nm) in a similar way as described for CP1-FITC. The dissociation constant (KD) value of TAMRA-labeled CP1 (CP1-TAMRA) was calculated as 101.9 ± 3.6 nM. All measurements were performed in triplicates.
Supplementary Fig. 26 The carve represents the binding of CP1-TAMRA to Lys63 linked Di-Ub. Using […]
performed in triplicates. All measurements were performed in three independent experiments. Bars represent mean values. All source data are provided as a Source data file. […]
(iv) Determination of KD value of 2-FITC, 29
The dissociation constant (KD) value of FITC-labeled cyclic peptide 29 was calculated as 43.2± 4 nM.
Supplementary Fig. 27 The carve represents the binding of 2-FITC to Lys63 linked Di-Ub. Using Y = […]
All measurements were performed in triplicates. All measurements were performed in three independent experiments. Bars represent mean values. All source data are provided as a Source data file .
(v) Determination of KD value of 2-TAMRA, 26
CP1-FITC. The dissociation constant (KD) value of TAMRA-labeled 26 (2-TAMRA) was calculated as 47.4 ± 5.9 nM. All measurements were performed in triplicates.
Supplementary Fig. 28 The carve represents the binding of 2-TAMRA to Lys63 linked Di-Ub. Using Y = […]
in triplicates. All measurements were performed in three independent experiments. Bars represent mean […]
(vi) Determination of KD value of FITC labeled cyclic peptide 27a for cyclic peptide 20 […]
Supplementary Fig. 29 The carve represents the binding of 27a to Lys63 linked Di-Ub. Using Y = […]
values. All source data are provided as a Source data file. […]

Data set [3] has as its system U2OS cells. Nature of the data set: Cell uptake study by confocal microscopy. The settings on record: live U2OS cells, 1 h, laser scanning confocal microscopy.
Method: as §1
Data set [4] deals with cells. Nature of the data set: Cell membrane integrity analysis, SYTOX blue assay. The format is cell-based. Particulars: up to 2 μM of cyclic peptides. The method, then:
To assess the cell toxicity due to the loss of membrane integrity within the concentration range used for efficient live-cell delivery of synthetic cyclic peptide molecules, we proceed similarly to the cell uptake experiment and stain the cells with SYTOX™ Blue (100 nM)[44]. SYTOX™ blue dead cell stain is a high-affinity nucleic acid stain that easily penetrates cells with compromised plasma membranes but will not cross uncompromised cell membranes. […] CLSM images were analyzed using ZEN 3.2 (blue edition).

Take `CC[C@H](C)[C@@H]1NC(=O)[C@H](Cc2c[nH]c3ccccc23)NC(=O)[C@H]([C@@H](C)CC)NC(=O)[C@H](CC(C)C)NC(=O)[C@H](CS)NC(=O)c2cccc(c2)CSC[C@@H](C(=O)NCC(=O)N[C@@H](C)C(=O)N[C@@H](CSC2CC(=O)N(c3ccc4c(c3)C(=O)OC43c4ccc(O)cc4Oc4cc(O)ccc43)C2=O)C(N)=O)NC(=O)[C@H](CC(C)C)NC(=O)[C@H]([C@@H](C)CC)NC(=O)[C@H](Cc2ccc(O)cc2)NC(=O)[C@@H]2CCCN2C(=O)[C@H](CC(N)=O)NC(=O)[C@H](CCCCN)NC(=O)[C@H](CO)NC(=O)[C@H](CO)NC(=O)CNC1=O` (stereo partly drawn) [2-FITC] (CLIWIGSSKNPYILCGAC(Fluorescein(5-Mal))-NH2; linker N-15 via X1): the “cell-permeability / delivery to cells” value in data set [1] is “did not observe an efficient delivery”. In addition, the Kd in data set [2] stood at 43.2 ± 4 nM.
For `CC[C@H](C)[C@@H]1NC(=O)[C@H](Cc2c[nH]c3ccccc23)NC(=O)[C@H]([C@@H](C)CC)NC(=O)[C@H](CC(C)C)NC(=O)[C@H](CC(C)C)NC(=O)c2cccc(c2)CSC[C@@H](C(=O)NCC(=O)N[C@@H](C)C(=O)N[C@@H](CSC2CC(=O)N(c3ccc4c(c3)C(=O)OC43c4ccc(O)cc4Oc4cc(O)ccc43)C2=O)C(N)=O)NC(=O)[C@H](CC(C)C)NC(=O)[C@H]([C@@H](C)CC)NC(=O)[C@H](Cc2ccc(O)cc2)NC(=O)[C@@H]2CCCN2C(=O)[C@H](CC(N)=O)NC(=O)[C@H](CCCCN)NC(=O)[C@H](CO)NC(=O)[C@H](CO)NC(=O)CNC1=O` (stereo partly drawn) [CP1-FITC] (LLIWIGSSKNPYILCGAC(Fluorescein(5-Mal))-NH2; linker N-15 via X1), the Reading-1 in data set [2] (conc. 10 nM) was 1192 and 1298 and 1136; in data set [2] (conc. 20 nM) it was 1625 and 1719 and 1573; in data set [2] (conc. 40 nM) it was 2317 and 2485 and 2207; in data set [2] (conc. 50 nM) it was 2713 and 2954 and 2674; in data set [2] (conc. 100 nM) it was 3252 and 3463 and 3183; in data set [2] (conc. 150 nM) it was 3598 and 3825 and 3755. Also, the Reading-1 in data set [2] (conc. 200 nM) is 4108 and 4275 and 4422; in data set [2] (conc. 250 nM), 4518 and 4629 and 4716; in data set [2] (conc. 300 nM), 4808 and 4979 and 5034. Besides, the Reading-2 in data set [2] (conc. 10 nM) was 1174 and 1279 and 1151; in data set [2] (conc. 20 nM), 1643 and 1748 and 1595; in data set [2] (conc. 40 nM), 2298 and 2498 and 2217; in data set [2] (conc. 50 nM) it was 2756 and 2925 and 2696; in data set [2] (conc. 100 nM) it was 3236 and 3622 and 3192; in data set [2] (conc. 150 nM) it was 3624 and 3817 and 3779. Also, the Reading-2 in data set [2] (conc. 200 nM) is 4147 and 4231 and 4454; in data set [2] (conc. 250 nM) it was 4536 and 4677 and 4749; in data set [2] (conc. 300 nM) it was 4853 and 4995 and 5045. The Reading-3 in data set [2] (conc. 10 nM) was 1201 and 1288 and 1189; in data set [2] (conc. 20 nM), 1657 and 1774 and 1588; in data set [2] (conc. 40 nM), 2354 and 2474 and 2221; in data set [2] (conc. 50 nM) it was 2732 and 2851 and 2602; in data set [2] (conc. 100 nM), 3249 and 3477 and 3196; in data set [2] (conc. 150 nM) it was 3602 and 3844 and 3784. Also, the Reading-3 was 4171 and 4244 and 4397 in data set [2] (conc. 200 nM); 4549 and 4687 and 4765 in data set [2] (conc. 250 nM); 4869 and 4968 and 5076 in data set [2] (conc. 300 nM).
For the molecule `CC[C@H](C)[C@@H]1NC(=O)[C@H](Cc2c[nH]c3ccccc23)NC(=O)[C@H]([C@@H](C)CC)NC(=O)[C@H](CC(C)C)NC(=O)[C@H](CS)NC(=O)c2cccc(c2)CSC[C@@H](C(=O)NCC(=O)N[C@@H](C)C(=O)N[C@@H](CSC2CC(=O)N(c3ccc(-c4c5ccc(=[N+](C)C)cc-5oc5cc(N(C)C)ccc45)c(C(=O)[O-])c3)C2=O)C(N)=O)NC(=O)[C@H](CC(C)C)NC(=O)[C@H]([C@@H](C)CC)NC(=O)[C@H](Cc2ccc(O)cc2)NC(=O)[C@@H]2CCCN2C(=O)[C@H](CC(N)=O)NC(=O)[C@H](CCCCN)NC(=O)[C@H](CO)NC(=O)[C@H](CO)NC(=O)CNC1=O` (stereo partly drawn) [2-TAMRA] (CLIWIGSSKNPYILCGAC(X2)-NH2; linker N-15 via X1), the “cell-permeability / delivery to cells” value in data set [3] was “efficient cell-permeability”. Further, the Kd in data set [2] turned out to be 47.4 ± 5.9 nM. In addition, the “SYTOX signal (cell membrane integrity)” value in data set [4] is listed as “did not detect SYTOX signal”.
For the molecule `CC[C@H](C)[C@@H]1NC(=O)[C@H](Cc2c[nH]c3ccccc23)NC(=O)[C@H]([C@@H](C)CC)NC(=O)[C@H](CC(C)C)NC(=O)[C@H](CSc2c(F)c(F)c(F)c(F)c2F)NC(=O)c2cccc(c2)CSC[C@@H](C(=O)NCC(=O)N[C@@H](C)C(=O)N[C@@H](CSC2CC(=O)N(c3ccc4c(c3)C(=O)OC43c4ccc(O)cc4Oc4cc(O)ccc43)C2=O)C(N)=O)NC(=O)[C@H](CC(C)C)NC(=O)[C@H]([C@@H](C)CC)NC(=O)[C@H](Cc2ccc(O)cc2)NC(=O)[C@@H]2CCCN2C(=O)[C@H](CC(N)=O)NC(=O)[C@H](CCCCN)NC(=O)[C@H](CO)NC(=O)[C@H](CO)NC(=O)CNC1=O` (stereo partly drawn) [27a] (C(X3)LIWIGSSKNPYILCGAC(Fluorescein(5-Mal))-NH2; linker N-15 via X1), the Kd in data set [2] amounted to 285 ± 11.9 nM.

The term Kd denotes the free concentration of one partner at which half of the binding sites on the other are occupied at equilibrium, for simple one-to-one binding.
